Measured values: ChEMBL document CHEMBL1909046, “DrugMatrix in vitro pharmacology data”
pIC50, pKi: −log10 of the molar value.

Assays:
[1] = biological target: T1, C-X-C chemokine receptor type 2 (Homo sapiens, UniProt P25025); type: cell membranes, CHO-K1, Membrane; conditions: cho-k1; note: in other assays of this panel Not Active means under 50% inhibition at 10 µM
T1 sequence (P25025 whole entry): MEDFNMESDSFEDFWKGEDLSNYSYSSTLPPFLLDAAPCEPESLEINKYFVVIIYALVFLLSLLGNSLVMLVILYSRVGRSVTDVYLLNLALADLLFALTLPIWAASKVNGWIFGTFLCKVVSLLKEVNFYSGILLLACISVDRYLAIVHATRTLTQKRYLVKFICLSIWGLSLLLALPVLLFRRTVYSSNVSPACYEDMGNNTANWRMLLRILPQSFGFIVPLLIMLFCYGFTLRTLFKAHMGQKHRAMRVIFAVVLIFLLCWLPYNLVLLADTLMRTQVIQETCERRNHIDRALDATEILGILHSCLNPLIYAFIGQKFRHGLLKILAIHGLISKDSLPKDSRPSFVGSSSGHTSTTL

[2] = biological target: Platelet-activating factor receptor (Homo sapiens, UniProt P25105); type: tissue-based; note: in other assays of this panel Not Active means under 50% inhibition at 10 µM
Sequence of Platelet-activating factor receptor (P25105 whole entry): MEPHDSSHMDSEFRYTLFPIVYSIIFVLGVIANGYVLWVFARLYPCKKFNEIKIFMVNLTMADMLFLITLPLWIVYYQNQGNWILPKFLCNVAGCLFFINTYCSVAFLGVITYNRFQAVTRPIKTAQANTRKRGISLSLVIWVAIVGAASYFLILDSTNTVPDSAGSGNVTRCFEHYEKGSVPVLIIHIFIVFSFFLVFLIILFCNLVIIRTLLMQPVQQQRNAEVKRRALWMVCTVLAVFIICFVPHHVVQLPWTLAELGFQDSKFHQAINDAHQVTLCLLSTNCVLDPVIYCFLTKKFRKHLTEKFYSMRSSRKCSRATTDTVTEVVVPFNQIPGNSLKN

[3] = biological target: Vascular endothelial growth factor receptor 1 (Homo sapiens, UniProt P17948); type: cell-based; conditions: huvec; note: in other assays of this panel Not Active means under 50% inhibition at 10 µM
Sequence of Vascular endothelial growth factor receptor 1 (P17948 whole entry): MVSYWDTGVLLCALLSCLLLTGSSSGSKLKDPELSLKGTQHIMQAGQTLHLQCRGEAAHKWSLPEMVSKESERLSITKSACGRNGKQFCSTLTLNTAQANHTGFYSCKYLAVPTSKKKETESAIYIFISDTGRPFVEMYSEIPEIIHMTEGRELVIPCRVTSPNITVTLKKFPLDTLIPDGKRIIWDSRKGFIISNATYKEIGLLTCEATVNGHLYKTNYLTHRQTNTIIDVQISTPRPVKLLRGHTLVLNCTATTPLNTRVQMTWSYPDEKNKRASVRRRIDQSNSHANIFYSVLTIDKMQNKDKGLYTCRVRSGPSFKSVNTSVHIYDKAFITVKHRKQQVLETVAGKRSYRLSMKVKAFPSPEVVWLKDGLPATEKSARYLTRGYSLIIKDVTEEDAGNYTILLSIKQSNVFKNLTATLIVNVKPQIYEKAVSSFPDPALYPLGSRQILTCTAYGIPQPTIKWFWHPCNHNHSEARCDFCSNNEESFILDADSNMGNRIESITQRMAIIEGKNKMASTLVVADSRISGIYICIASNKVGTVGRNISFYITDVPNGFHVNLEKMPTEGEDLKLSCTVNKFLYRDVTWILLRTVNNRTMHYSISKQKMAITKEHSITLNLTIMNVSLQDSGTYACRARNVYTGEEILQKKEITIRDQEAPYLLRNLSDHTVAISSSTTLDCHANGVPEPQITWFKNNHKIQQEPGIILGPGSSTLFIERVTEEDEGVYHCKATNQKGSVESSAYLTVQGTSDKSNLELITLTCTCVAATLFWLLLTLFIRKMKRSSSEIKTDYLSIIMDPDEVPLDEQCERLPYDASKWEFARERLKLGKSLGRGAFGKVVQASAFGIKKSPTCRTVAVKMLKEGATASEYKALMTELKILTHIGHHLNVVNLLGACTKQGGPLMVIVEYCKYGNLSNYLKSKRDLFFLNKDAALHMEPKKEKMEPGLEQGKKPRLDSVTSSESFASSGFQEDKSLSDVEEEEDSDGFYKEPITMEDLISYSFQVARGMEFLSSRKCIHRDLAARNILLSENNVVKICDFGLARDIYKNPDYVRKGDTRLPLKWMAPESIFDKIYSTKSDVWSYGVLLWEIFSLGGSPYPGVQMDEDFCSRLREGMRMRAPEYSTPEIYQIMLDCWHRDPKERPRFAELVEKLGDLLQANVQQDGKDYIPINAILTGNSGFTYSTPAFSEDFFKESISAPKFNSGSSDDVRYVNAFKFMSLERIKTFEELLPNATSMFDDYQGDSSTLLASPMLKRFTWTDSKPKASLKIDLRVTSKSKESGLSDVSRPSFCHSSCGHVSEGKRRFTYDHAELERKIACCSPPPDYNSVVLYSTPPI

D(4) dopamine receptor = biological target: T2, D(4) dopamine receptor (Homo sapiens, UniProt P21917); test: DRUGMATRIX: Dopamine D4.2 radioligand binding (ligand: [3H] Spiperone); type: cell membranes, CHO-K1, Membrane; conditions: cho-k1; Not Active = under 50% inhibition at 10 µM
T2 sequence (P21917 whole entry): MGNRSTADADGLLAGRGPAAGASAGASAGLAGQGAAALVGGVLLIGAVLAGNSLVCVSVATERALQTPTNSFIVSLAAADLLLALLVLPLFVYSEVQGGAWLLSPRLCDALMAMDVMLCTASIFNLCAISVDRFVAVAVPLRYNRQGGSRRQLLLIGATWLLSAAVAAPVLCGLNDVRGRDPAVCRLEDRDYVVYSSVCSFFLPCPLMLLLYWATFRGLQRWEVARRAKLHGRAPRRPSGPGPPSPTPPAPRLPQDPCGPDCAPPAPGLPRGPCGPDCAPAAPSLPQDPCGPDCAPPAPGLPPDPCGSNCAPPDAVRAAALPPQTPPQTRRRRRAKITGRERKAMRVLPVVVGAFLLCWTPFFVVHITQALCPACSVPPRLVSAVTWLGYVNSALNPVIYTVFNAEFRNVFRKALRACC

[4] = biological target: T3, C-C chemokine receptor type 4 (Homo sapiens, UniProt P51679); type: cell membranes, Chem-1, Membrane; conditions: chem-1; note: in other assays of this panel Not Active means under 50% inhibition at 10 µM
T3 sequence (P51679 whole entry): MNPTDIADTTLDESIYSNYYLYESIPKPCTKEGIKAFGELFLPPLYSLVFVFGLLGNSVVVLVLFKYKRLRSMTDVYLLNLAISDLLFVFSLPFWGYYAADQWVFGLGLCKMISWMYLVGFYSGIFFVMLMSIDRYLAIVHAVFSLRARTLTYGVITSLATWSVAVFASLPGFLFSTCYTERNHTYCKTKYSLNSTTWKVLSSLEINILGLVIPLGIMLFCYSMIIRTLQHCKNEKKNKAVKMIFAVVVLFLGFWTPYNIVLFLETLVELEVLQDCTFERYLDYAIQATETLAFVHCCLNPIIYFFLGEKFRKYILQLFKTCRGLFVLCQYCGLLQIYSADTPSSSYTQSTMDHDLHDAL

[5] = biological target: Aldo-keto reductase family 1 member B1 (Rattus norvegicus, UniProt P07943); test: biochemical; type: tissue-based, Lens of camera-type eye
[6] = biological target: T4, Alpha-2C adrenergic receptor (Homo sapiens, UniProt P18825); test: DRUGMATRIX: Adrenergic Alpha-2C radioligand binding (ligand: [3H] MK-912); type: cell membranes, Sf9, Membrane; conditions: for pIC50: read-out: IC50; for pKi: read-out: Ki
T4 sequence (P18825 whole entry): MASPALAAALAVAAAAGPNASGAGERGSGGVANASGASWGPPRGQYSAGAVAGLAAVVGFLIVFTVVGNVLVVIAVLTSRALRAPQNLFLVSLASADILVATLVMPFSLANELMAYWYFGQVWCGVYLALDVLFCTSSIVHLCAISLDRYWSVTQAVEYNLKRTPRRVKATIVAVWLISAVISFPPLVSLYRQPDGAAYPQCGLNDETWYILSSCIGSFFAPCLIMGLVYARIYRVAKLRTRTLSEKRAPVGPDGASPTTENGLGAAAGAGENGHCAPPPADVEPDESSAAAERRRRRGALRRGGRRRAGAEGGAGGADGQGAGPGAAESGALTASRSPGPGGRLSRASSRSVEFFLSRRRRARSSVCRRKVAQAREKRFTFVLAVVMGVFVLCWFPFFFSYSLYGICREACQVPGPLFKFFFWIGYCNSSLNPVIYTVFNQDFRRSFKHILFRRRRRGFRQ

[7] = DRUGMATRIX: ATPase, Na+/K+ enzyme inhibition (substrate: ATP); type: tissue-based, Sus scrofa, Heart; conditions: Not Active = under 50% inhibition at 10 µM

| Molecule | IC50 [1] | IC50 [2] | IC50 [3] | IC50 (D(4) dopamine receptor) | IC50 [4] | IC50 [5] | IC50 ([6]; sf9) | IC50 [7] | Ki [7] | Ki [1] | Ki [2] | Ki [3] | Ki (D(4) dopamine receptor) | Ki [4] | Ki [5] | Ki ([6]; sf9) | pIC50 [6] | pKi [6] |
| --- | --- | --- | --- | --- | --- | --- | --- | --- | --- | --- | --- | --- | --- | --- | --- | --- | --- | --- |
| O=C(O)CCc1nc(-c2ccccc2)c(-c2ccccc2)o1 [OXAPROZIN] | Not Active | Not Active | Not Active | Not Active | Not Active | Not Active | Not Active | Not Active | Not Active | – | – | – | – | – | – | – | – | – |
| CC(=O)[C@]1(O)Cc2c(O)c3c(c(O)c2[C@@H](O[C@H]2C[C@H](N)[C@H](O)[C@H](C)O2)C1)C(=O)c1ccccc1C3=O [IDARUBICIN] | Not Active | Not Active | Not Active | Not Active | Not Active | Not Active | Not Active | Not Active | Not Active | – | – | – | – | – | – | – | – | – |
| NS(=O)(=O)c1cc(C(=O)O)c(NCc2ccco2)cc1Cl [FUROSEMIDE] | Not Active | Not Active | Not Active | Not Active | Not Active | Not Active | Not Active | Not Active | Not Active | – | – | – | – | – | – | – | – | – |
| O=C1CN(/N=C/c2ccc([N+](=O)[O-])o2)C(=O)N1 [NITROFURANTOIN] | Not Active | Not Active | Not Active | Not Active | Not Active | Not Active | Not Active | Not Active | Not Active | – | – | – | – | – | – | – | – | – |
| CARBOXYMETHYLCELLULOSE | Not Active | Not Active | Not Active | Not Active | Not Active | Not Active | Not Active | Not Active | Not Active | Not Active | Not Active | Not Active | Not Active | Not Active | Not Active | Not Active | – | – |
| c1ccc2sc(SSc3nc4ccccc4s3)nc2c1 [BENZOTHIAZYL DISULFIDE] | Not Active | Not Active | Not Active | Not Active | Not Active | Not Active | – | Not Active | Not Active | – | – | – | – | – | – | – | 5.78 | 6.62 |
| CC12CCC(CC1)C(C)(C)O2 [EUCALYPTOL] | Not Active | Not Active | Not Active | Not Active | Not Active | Not Active | Not Active | Not Active | Not Active | – | – | – | – | – | – | – | – | – |
| CC(=O)Nc1ccc2c(c1)Cc1ccccc1-2 [2-ACETYLAMINOFLUORENE] | Not Active | Not Active | Not Active | Not Active | Not Active | Not Active | Not Active | Not Active | Not Active | – | – | – | – | – | – | – | – | – |
| CCN1C[C@]2(COC)[C@H](O)C[C@H](OC)[C@@]34[C@@H]5C[C@@]6(O)[C@H](OC(=O)c7ccccc7)[C@@H]5[C@@](OC(C)=O)([C@@H]([C@H](OC)[C@H]23)[C@@H]14)[C@@H](O)[C@@H]6OC [ACONITINE] | Not Active | Not Active | Not Active | Not Active | Not Active | Not Active | Not Active | Not Active | Not Active | – | – | – | – | – | – | – | – | – |
| COc1ccccc1OCCNCC(O)COc1cccc2[nH]c3ccccc3c12 (stereo not drawn) [CARVEDILOL] | Not Active | Not Active | Not Active | Not Active | Not Active | Not Active | – | Not Active | Not Active | – | – | – | – | – | – | – | 7.05 | 7.89 |
| CC(N)Cc1c[nH]c2ccc(OCc3cccs3)cc12 (stereo not drawn) [BW-723C86] | Not Active | Not Active | Not Active | Not Active | Not Active | Not Active | Not Active | Not Active | Not Active | – | – | – | – | – | – | – | – | – |
